Measured values from US20260345619A1 (Principia Biopharma Inc., priority 2023, published 2026).

What was measured:
[1] = Asthma Daytime Symptom Diary (ADSD) score; assay type: in vivo, human; settings: for LS mean difference versus placebo, ADSD symptom score: Week 12
Source text: (§1) ADSD and ANSD are PRO measures developed by the PRO Consortium′ Asthma Working Group. Both instruments have been designed to measure asthma symptoms in adult and adolescent (12 years of age and older) patients diagnosed with mild to severe asthma. ADSD and ANSD assess asthma severity based on patient self-report of asthma core symptoms.
(§2) Other efficacy endpoints included: • Change from baseline in pre- and post-bronchodilator FEV1 and other lung function measurement (peak expiratory flow (PEF), forced vital capacity (FVC), forced expiratory flow (FEF) 25-75%) at each spirometry endpoint. • Asthma Control Questionnaire-5 (ACQ-5) score change from baseline at EOT and at each assessment time point. • Asthma Quality of Life Questionnaire with Standardized Activities (AQLQ(S)) Self-Administered score change from baseline at EOT and at each assessment time point. • Change from baseline at EOT and change from baseline at each week for asthma symptom scores in the morning and evening (ADSD and ANSD). Questionnaire was to be administered daily and score averaged weekly for analysis. • Change from baseline at EOT and change from baseline at each week in number of inhalations/day of albuterol or levalbuterol for symptom relief.
(§3) The ADSD and ANSD are PRO measures developed by the PRO Consortium′ Asthma Working Group. Both instruments have been designed to measure asthma symptoms in adult and adolescent (12 years of age and older) patients diagnosed with mild to severe asthma. ADSD and ANSD assess asthma severity based on patient self-report of asthma core symptoms, i.e., difficulty of breathing; wheezing; shortness of breath; chest tightness; chest pain; and cough. Patients were asked to complete the ADSD every night before they went to bed, thinking about their asthma symptoms on that day, from when they got up this morning until then; the ANSD when getting up, thinking about their asthma symptoms from the previous night from when they went to bed until then.
(§4) Both the ADSD and ANSD are composed of 6 items rated using an 11-point NRS that ranges from 0=None to 10=As bad as you can imagine (Gater et al. 2016). The participants were to record their daytime and nighttime asthma symptoms in an electronic diary, once in the evening and once in the morning, respectively. The participants were to complete the ADSD and the ANSD.

[2] = Asthma Nighttime Symptom Diary (ANSD) score; assay type: in vivo, human; settings: for LS mean difference versus placebo, ANSD symptom score: Week 12
Source text: as §1, §2, §3, §4

[3] = Participant disposition: completion, discontinuation and reasons; assay type: in vivo, human
Source text: Participants that met the criteria for a LOAC, at any time during the randomized IMP treatment phase, were to (be): • Discontinue early from IMP treatment, • Evaluated and receive treatment by the Investigator with standard of care according to standard medical practice. If practicable and safe, the participant was to undergo EOT Visit (Visit 14) assessment prior to the administration of rescue medications. • Resume their individual prescreening ICS/LABA background therapy and, • Followed for safety during a 4-week Post IMP Treatment Period.
Participants who discontinued IMP treatment prior to completing the 12-week IMP treatment (due to LOAC or due to early treatment discontinuation), were to be evaluated as soon as possible at the individual participant's EOT Visit and using procedures as planned for the EOT Visit at Week 12 (Visit 14). At their EOT visit, participants were to resume their prescreening ICS/LABA background therapy or appropriate therapy as needed per treating physician were to be resumed after the EOT study assessments had been performed and entered the 4-week safety follow-up period/Post IMP Treatment Period, concluding with the EOS Visit (Visit 16).

[4] = test system: bone marrow tyrosine kinase on chromosome X (BMX); settings: cited from earlier work
[5] = test system: B cell lymphocyte kinase (BLK); settings: cited from earlier work
ERBB4 = settings: cited from earlier work
BTK [6] = settings: preclinical assays; cited from earlier work
[7] = humans, oral; cited from earlier work
BTK [8] = settings: over 24 h; cited from earlier work
platelet aggregation = settings: healthy volunteers or patients with ITP; cited from earlier work
[9] = ITP, cited from earlier work
[10] = both cohorts, Week 12, all components

CC(C)(C=C(C#N)C(=O)N1CCC[C@@H](n2nc(-c3ccc(Oc4ccccc4)cc3F)c3c(N)ncnc32)C1)N1CCN(C2COC2)CC1 (mixture of isomers) [rilzabrutinib, (R)-2-[3-[4-amino-3-(2-fluoro-4-phenoxy-phenyl)pyrazolo[3,4-d]pyrimidin-1-yl]piperidine-1-carbonyl]-4-methyl-4-[4-(oxetan-3-yl)piperazin-1-yl]pent-2-enenitrile]
LS mean ADSD change from baseline at Week 12 ([1]; 400 mg BID): −0.27
LS mean difference versus placebo, ADSD symptom score ([1]; 400 mg BID, 95% CI −1.03, 0.26, nominal p=0.2377): −0.39
LS mean ADSD change from baseline at Week 12 ([1]; 400 mg TID): −0.43
LS mean difference versus placebo, ADSD symptom score ([1]; 400 mg TID, 95% CI −1.15, 0.14, nominal p=0.1276): −0.50
ADSD symptom score (in words) [1, 10]: improvement in ADSD and ANSD symptom score
LS mean ANSD change from baseline at Week 12 ([2]; 400 mg BID): −0.35
LS mean difference versus placebo, ANSD symptom score ([2]; 400 mg BID, 95% CI −1.33, −0.03, nominal p=0.0390): −0.68
LS mean ANSD change from baseline at Week 12 ([2]; 400 mg TID): −0.48
LS mean difference versus placebo, ANSD symptom score ([2]; 400 mg TID, 95% CI −1.13, 0.06, nominal p=0.0758): −0.54
ANSD symptom score (in words) [2, 10]: improvement in ADSD and ANSD symptom score
Status at last contact: Dead ([3]; 400 mg BID (N = 32)): 0 n (%)
permanent study intervention discontinuation: Adverse event ([3]; 400 mg BID (N = 32)): 2 (6.3) n (%)
permanent study intervention discontinuation: Adverse event not related to COVID-19 ([3]; 400 mg BID (N = 32)): 2 (6.3) n (%)
permanent study intervention discontinuation: Adverse event related to COVID-19 ([3]; 400 mg BID (N = 32)): 0 n (%)
permanent study intervention discontinuation: Lack of efficacy ([3]; 400 mg BID (N = 32)): 0 n (%)
permanent study intervention discontinuation: Loss of asthma control (LOAC) ([3]; 400 mg BID (N = 32)): 8 (25.0) n (%)
study discontinuation: Adverse event ([3]; 400 mg BID (N = 32)): 1 (3.1) n (%)
study intervention withdrawal by subject: Adverse event ([3]; 400 mg BID (N = 32)): 1 (3.1) n (%)
Status at last contact: Dead ([3]; 400 mg TID (N = 64)): 0 n (%)
permanent study intervention discontinuation: Adverse event ([3]; 400 mg TID (N = 64)): 5 (7.8) n (%)
permanent study intervention discontinuation: Adverse event not related to COVID-19 ([3]; 400 mg TID (N = 64)): 2 (3.1) n (%)
permanent study intervention discontinuation: Adverse event related to COVID-19 ([3]; 400 mg TID (N = 64)): 3 (4.7) n (%)
permanent study intervention discontinuation: Lack of efficacy ([3]; 400 mg TID (N = 64)): 1 (1.6) n (%)
permanent study intervention discontinuation: Loss of asthma control (LOAC) ([3]; 400 mg TID (N = 64)): 10 (15.6) n (%)
study discontinuation: Adverse event ([3]; 400 mg TID (N = 64)): 0 n (%)
study intervention withdrawal by subject: Adverse event ([3]; 400 mg TID (N = 64)): 2 (3.1) n (%)
IC50 [4]: 1 nM
IC50 [5]: 6.3 nM
IC50 (ERBB4): 11 nM
binding to BTK over time (BTK [6]): persisted
absorption [7]: rapidly absorbed
half-life [7]: 3 to 4 h
pharmacokinetic variability [7]: variable pharmacokinetics
sustained target occupancy (BTK [8]): high sustained occupancy over 24 h
bleeding problems (platelet aggregation): does not lead to bleeding problems
treatment-emergent serious adverse events (TESAEs) ([9]; Phase 1/2): no treatment-emergent serious adverse events (TESAEs) observed
participants achieving the primary response endpoint ([9]; treatment for at least 12 weeks): 50%
